Common to all, as to assay type: cell-based
Assay [1] concerns NCI-H69 small cell lung cancer cell line. As to the kind of experiment: MTS cell viability assay, growth inhibition, NCI-H69. The conditions noted are these: NCI-H69 cells, 72 hours of treatment. The method, then:
(§1) Cytotoxicity was measured in six cell lines: two colorectal carcinoma cell lines (HT29 and HCT-116); two small cell lung cancer cell lines (NCI-H69 and NCI-H69/AR); and two ovarian cancer cell lines (A2780 and A2780/DPPt). Viable cell number was measured using the MTS cell viability assay ([…] 96 AQueous One Solution Cell Proliferation Assay kit available from Promega, US). […] Cisplatin was prepared in saline. […] All tumor lines were propagated under sterile conditions and incubated at 37° C. in HEPA-filtered CO2 tissue culture incubators with 5% CO2 and 95% humidity in colorless RPMI 1640 medium (Mediatech, Herndon, Va.) containing 5% fetal bovine serum (complete medium). The ovarian and colon tumor cell lines were plated in microtiter plates at a density of 5,000 cells per well. The lung lines were plated at a density of 10,000 cells per well. Viable cell number was measured by the MTS dye conversion assay after a total of 72 hours of treatment. […] The plates were incubated for four hours at 37° C. The absorbance was measured at 490 nm on a Coulter microplate reader.

The subject of assay [2] is HT29 colorectal carcinoma cell line. As to the kind of experiment: MTS cell viability assay, growth inhibition, HT29. The conditions noted are these: HT29 cells, 72 hours of treatment. On the procedure:
as §1
A general note: Tetrazolium dyes change colour on reduction, which living cells bring about.

Assay [3] deals with HCT-116 colorectal carcinoma cell line. The assay can be described thus: MTS cell viability assay, growth inhibition, HCT-116. The conditions noted are these: HCT-116 cells, 72 hours of treatment. On the procedure:
as §1

Assay [4] relates to A2780 ovarian cancer cell line. As to the kind of experiment: MTS cell viability assay, growth inhibition, A2780. The conditions noted are these: A2780 cells. The method, then:
as §1

The subject of assay [5] is NCI-H69/AR small cell lung cancer cell line. As to the kind of experiment: MTS cell viability assay, growth inhibition, NCI-H69/AR. The conditions noted are these: NCI-H69/AR cells, 72 hours of treatment. On the procedure:
as §1

Assay [6] relates to A2780/DDPT ovarian cancer cell line (platinum resistant). As to the kind of experiment: MTS cell viability assay, growth inhibition, A2780/DDPT. On the procedure:
as §1

[7] abbreviates: 72 hours of treatment, MTS, read-out: Growth Inhibition (GI50) A2780.
Where [8] appears, read: method of Example 10 (text of Examples 8 and 9), read-out: GI50 for A2780.
The mark [9] stands for this setting: A2780 (platinum resistant) cells, method of Example 10 (text of Examples 8 and 9), read-out: GI50 for A2780 (platinum resistant).
Setting [10] is: A2780/DDPT cells, 72 hours of treatment, MTS, read-out: Growth Inhibition (GI50) A2780/DDPT.

Where two headings read alike, the source gives them in different places.

From patent US7268245B2, “Multinuclear platinum compounds” (Sonus Pharmaceuticals, Inc., priority 2004, dated 2007) come the findings set out here.

For `N.N.[Cl][Pt][Cl]` [Cisplatin, cis-diaminedichloroplatinum (II), reference compound], the GI50 in assay [1] is 15 µM; in assay [2] it was 61 µM; in assay [3], 43 µM; in assay [4] (setting [7]), 15 µM; in assay [4] (setting [8]), 15 µM; in assay [5], 15 µM. In addition, the GI50 in assay [6] (setting [9]) and in assay [6] (setting [10]) was 57 µM in each case.

As to “ethylene glycol-bis-(β-aminoethyl)-N,N,N′,N′-tetraacetic-acid-diplatinum [EGTA-diplatinum]”, the GI50 in assay [1], in assay [3], in assay [4] (setting [7]) and in assay [5] was > 100 µM in each case.

“diethylenetriamine-N,N,N′,N″,N″-pentaacetic-acid-triplatinum [DTPA-triplatinum]”: the GI50 in assay [4] (setting [8]) was found to be 19 µM; in assay [6] (setting [9]), 63 µM.

On to “triethylene-tetraamine-N,N,N′,N″,N′″,N′″-hexaacetic-acid-diplatinum [TTHA-diplatinum]”, for which the GI50 turned out to be 9.3 µM in assay [1]; 53 µM in assay [2]; 23 µM in assay [3]; 7.1 µM in assay [4] (setting [7]); 16 µM in assay [5]; 48 µM in assay [6] (setting [10]).

Take “1,3-Diamino-2-hydroxypropane-N,N,N′,N′-tetraacetic-acid-diplatinum [DAPTA-diplatinum]”: the GI50 is 27 µM in assay [1]; > 100 µM in assay [2]; 81 µM in assay [3]; 20 µM in assay [4] (setting [7]); 21 µM in assay [5]; > 100 µM in assay [6] (setting [10]).

For “diethylenetriamine-N,N,N′,N″,N″-pentaacetic-acid-diplatinum [DTPA-diplatinum]”, the GI50 in assay [1] was determined as 18 µM; in assay [2], 54 µM; in assay [3] it was 41 µM; in assay [4] (setting [7]), 19 µM; in assay [5] it was 23 µM; in assay [6] (setting [10]), 62 µM.

For “triethylenetetraamine-N,N,N′,N″,N′″,N′″-hexaacetic-acid-tetraplatinum [TTHA-tetraplatinum]”, the GI50 in assay [4] (setting [8]) was 7 µM; in assay [6] (setting [9]), 50 µM.
